Results reported in patent US5451584A, “N-alkynyl carboxamides as sertonergic agents” (American Home Products Corporation, priority 1994, dated 1995).

Legend:
[1] = molecular target: T1, 5-HT1A serotonin receptor (Rattus norvegicus, UniProt P19327); assay: displacement of [^3 H] 8-OHDPAT (dipropylaminotetralin) from the 5-HT1A serotonin receptor; settings: procedure of Hall et al., read-out: 5-HT1A Binding (IC50)
T1 construct: from tissue; inferred from the cited Hall et al. 1985 procedure
T1 sequence (P19327 1-422): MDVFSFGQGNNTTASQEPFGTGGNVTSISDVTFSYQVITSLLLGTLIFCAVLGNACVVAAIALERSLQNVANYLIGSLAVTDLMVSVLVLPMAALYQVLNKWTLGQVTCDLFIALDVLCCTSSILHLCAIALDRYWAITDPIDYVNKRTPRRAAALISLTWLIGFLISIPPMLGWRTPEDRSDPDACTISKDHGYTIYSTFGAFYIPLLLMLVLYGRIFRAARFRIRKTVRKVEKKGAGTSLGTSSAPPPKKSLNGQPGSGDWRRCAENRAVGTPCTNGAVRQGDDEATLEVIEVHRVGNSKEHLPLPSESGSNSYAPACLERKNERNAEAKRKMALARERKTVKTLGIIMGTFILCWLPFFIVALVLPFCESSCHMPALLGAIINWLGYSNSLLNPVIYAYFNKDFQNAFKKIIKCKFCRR
Description: The compounds of this invention are prepared by conventional methods. For example, the appropriately substituted "acid" is transformed in the presence of a coupling agent like N,N-bis(2-oxo-3-oxazolidinyl)phosphoramidic chloride to yield the desired products ( 1 ). [drawing 3] High affinity for the serotonin 5-HT1A receptor was established by testing the claimed compound's ability to displace [^3 H] 8-OHDPAT (dipropylaminotetralin) from the 5-HT1A serotonin receptor following the procedure of Hall et al., J. Neurochem. 44, 1685 (1985). […] The anxiolytic activity of buspirone is believed to be, at least partially, due to its 5-HT1A receptor affinity (Vander Maclen et al., Eur. J. Pharmacol. 1986, 129 (1-2) […]).

[2] = molecular target: T1, 5-HT1A serotonin receptor; settings: buspirone, standard for anxiolytic activity; cited from earlier work

Structure (SMILES)	IC50 [1] [µM]	affinity for the 5-HT1A serotonin receptor subtype (in words) [2]
C#CCN(C)C(=O)C(CCN1CCN(c2ccccc2OC)CC1)c1ccccc1 (stereo not drawn) [Example 2, 4-[4-(2-Methoxy-phenyl)-piperazin-1-yl]-N-methyl-2-phenyl-N-prop-2-ynyl-butyramide]	0.0194	–
C#CCNC(=O)C(CCN1CCN(c2ccccc2OC)CC1)c1ccccc1 (stereo not drawn) [Example 1, 4-[4-(2-Methoxy-phenyl)-piperazin-1]-2-phenyl-N-prop-2-ynyl-butyramide]	0.0449	–
O=C1CC2(CCCC2)CC(=O)N1CCCCN1CCN(c2ncccn2)CC1 [buspirone]	–	potent affinity
